# “And” between values parts separate entries of the source, which are not always exact repeats. Identical values can stand only once. Results filed as inconclusive are left out. The source made the active and inactive calls.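 The calls were made as follows: active = compound whose fitted half-maximal inhibitory dose is at most twice its top valid dose in every replicate test; inconclusive = replicate test calls disagree with one another; inactive = all replicate tests inactive, including opposite-direction effects.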
# Biological target: UDP-N-acetylbacillosamine N-acetyltransferase PglD (Campylobacter jejuni)
# Test: PglD acetyltransferase inhibitors, dose response, biochemical, DTNB absorbance, dry powder samples, set 4 (AID 686993)
# Settings: purified PglD, DTNB absorbance 412 nm, CoA release
SMILES,"activity change, negative = inhibition (at 38 µM (top of the series))",AC50,"activity change, negative = inhibition (at 10 µM (top of the series))"
Cc1c(C(=O)O)sc2nc(/C=C/c3ccnc4ccccc34)[nH]c(=O)c12,inactive,–,–
Cc1c(C(=O)O)sc2nc(CCc3cccc(O)c3)[nH]c(=O)c12,–,8.28 µM,–
Cc1c(C(=O)O)sc2nc(/C=C/c3ccc4[nH]ccc4c3)[nH]c(=O)c12,–,3.97 µM,–
Cc1c(C(=O)O)sc2nc(/C=C/c3ccc(N)nc3)[nH]c(=O)c12,–,14.6 µM,–
Cc1c(C(=O)O)sc2nc(/C=C/c3cnc4ccccc4c3)[nH]c(=O)c12,–,–,inactive
Cc1c(C(=O)O)sc2nc(/C=C/c3ccccc3)[nH]c(=O)c12,–,8.04 µM,–
Cc1c(C(=O)O)sc2nc(/C=C/c3cc4ccccc4cn3)[nH]c(=O)c12,–,4.54 µM,–
Cc1c(C(=O)O)sc2nc(/C=C/c3cccc(O)c3)[nH]c(=O)c12,inactive,11.7 µM and 1.93 µM,–
Cc1c(C(=O)O)sc2nc(/C=C/c3ccc4ccccc4c3)[nH]c(=O)c12,–,30.5 µM,–
Cc1c(C(=O)O)sc2nc(/C=C/c3cccc(F)c3)[nH]c(=O)c12,–,7.23 µM,–
Cc1c(C(=O)O)sc2nc(/C=C/c3ccc4cc[nH]c4c3)[nH]c(=O)c12,–,7.87 µM,–
Cc1c(C(=O)O)sc2nc(/C=C/c3cccc(C(N)=O)c3)[nH]c(=O)c12,–,17.6 µM,–
Cc1c(C(=O)O)sc2nc(/C=C/c3ccccn3)[nH]c(=O)c12,–,2.58 µM,–
Cc1c(C(=O)O)sc2nc(/C=C/c3ccncc3)[nH]c(=O)c12,–,–,inactive
Cc1c(C(=O)O)sc2nc(/C=C/c3cccc(C(F)(F)F)c3)[nH]c(=O)c12,–,29.1 µM,–
Cc1c(C(=O)O)sc2nc(/C=C/C=C/c3ccccc3)[nH]c(=O)c12,–,18.2 µM,–
Cc1c(C(=O)O)sc2nc(/C=C/C3CC3)[nH]c(=O)c12,inactive,–,–
